Each compound was assayed on A431 cells (assay: Assay for total NADH and NAD+ measurements in cells). Conditions: percent of NAD level of untreated control cells (100 = no change).
Type: cell-based
Set-up: C: change in NAD levels in response to test compound, shown as % of NAD activity in the absence of test compound: concentration or dose not given beside the values
Method: 2,000 cells/well and, at the same time, test compounds dissolved in media at the desired concentration were added to each well. The treated cells were incubated overnight in C02 incubator. The cells were washed 6 times with PBS with 1 mM CaCl2) and 1 mM MgCl2. In the last wash, 10 μL of PBS with 1 mM CaCl2) and 1 mM MgCl2 per well were left in each well. Immediately thereafter, 10 μL 0.4% dodecyltrimethylammonium bromide (DTAB) in phosphate buffer pH 8.0 as added, and the plates were shaked at 1000 rpm for 5 minutes. 60 μL reaction mix was added, and fluorescence at Ex/Em 530/585 was immediately monitored. A linear increase should be achieved with 8 cycles every 92 seconds, 10 number of flashes/well/cycle. The reaction mix was prepared per the following table, respecting the amount and order in which each component was added:
All assays were performed in A431 cells. Referring to the tables below, activity: “+” ≥25 μM, “++” ≥1 μM and <25 μM, and “+++”<1 μM.
In each table header, A: NAMPT enzyme inhibitory activity, IC50 (μM); B: Cellular NAD inhibitory activity, IC50 (μM); and C: change in NAD levels in response to test compound, shown as % of NAD activity in the absence of test compound. […] A percentage of 100 percent would indicate no increase or decrease in NAD levels as compared to that measured for untreated control cells, while a percentage of 50 percent would indicate a decrease in NAD levels of 50 percent as compared to that measured for untreated control cells.

Row | Compound | C: change in NAD levels in response to test compound, shown as % of NAD activity in the absence of test compound [%]
1 | Cn1cnnc1-c1ccc2nc(-c3ccc(F)cc3)c(-c3ccc(F)cc3)nc2c1 [BC19101] | 53
2 | CN1CCN(C(=O)c2ccc3nc(C(F)(F)F)c(-c4ccc(F)cc4)nc3c2)CC1 [BC19103] | 92
3 | Cn1nnnc1-c1ccc2nc(C(F)(F)F)c(-c3ccc(F)cc3)nc2c1 [BC19112] | 86
4 | C#CCNC(=O)c1ccc2nc(-c3cccs3)c(-c3ccc(F)cc3)nc2c1 [BC19120] | 84
5 | Cn1nnnc1-c1ccc2nc(-c3ccc(F)cc3)c(-c3ccc(F)cc3)nc2c1 [BC19139] | 29
6 | Cc1cnc(-c2ccc3nc(-c4ccc(F)cc4)c(-c4ccc(F)cc4)nc3c2)o1 [BC19140] | 90
7 | Cc1nnc(-c2ccc3nc(-c4ccc(F)cc4)c(-c4ccc(F)cc4)nc3c2)o1 [BC19141] | 62
8 | CN1CCN(C(=O)c2ccc3nc(C(F)(F)F)c(-c4cccc(F)c4)nc3c2)CC1 [BC19142] | 94
9 | Fc1ccc(-c2nc3ccc(-c4nnc[nH]4)cc3nc2-c2ccc(F)cc2)cc1 [BC19143] | 80
10 | Cn1cc(-c2ccc3nc(-c4ccc(F)cc4)c(-c4ccc(F)cc4)nc3c2)nn1 [BC19148] | 80
11 | Fc1ccc(-c2nc3ccc(-c4c[nH]nn4)cc3nc2-c2ccc(F)cc2)cc1 [BC19150] | 89
12 | Cn1nnnc1-c1ccc2nc(-c3ccc(F)cc3)c(C(F)(F)F)nc2c1 [BC19152] | 93
13 | C#CCNC(=O)c1ccc2nc(-c3ccc(F)cc3)c(-c3ccc(F)cc3)nc2c1 [BC19154] | 73
14 | Fc1ccc(-c2nc3ccc(-c4nnc[nH]4)cc3nc2C(F)(F)F)cc1 [BC19159] | 92
15 | CN1CCN(C(=O)c2ccc3nc(-c4ccc(F)cc4)c(-c4cccs4)nc3c2)CC1 [BC19185] | 94
16 | N#Cc1ccc2nc(-c3ccc(F)cc3)c(-c3ccc(F)cc3)nc2c1 [BC19192] | 76
17 | N=C(NO)c1ccc2nc(-c3ccc(F)cc3)c(-c3ccc(F)cc3)nc2c1 [BC19194] | 45
18 | CC(C)OC(=O)Nc1ccc2nc(-c3ccc(F)cc3)c(-c3ccc(F)cc3)nc2c1 [BC19195] | 90
19 | O=C(NCCN1CCOCC1)c1ccc2nc(-c3ccc(F)cc3)c(-c3ccc(F)cc3)nc2c1 [BC19237] | 24
20 | Fc1ccc(-c2nc3ccc(-c4nnnn4CCN4CCOCC4)cc3nc2-c2ccc(F)cc2)cc1 [BC19238] | 68
21 | O=C(Nc1ccc2nc(-c3ccc(F)cc3)c(-c3ccc(F)cc3)nc2c1)OCC(F)(F)F [BC19239] | 66
22 | Fc1ccc(-c2nc3ccc(-c4cn(CCN5CCOCC5)nn4)cc3nc2-c2ccc(F)cc2)cc1 [BC19240] | 27
23 | Cc1nc(C)c(-c2ccc3nc(-c4ccc(F)cc4)c(-c4ccc(F)cc4)nc3c2)s1 [BC19241] | 79
24 | Fc1ccc(-c2nc3ccc(-c4cccnc4)cc3nc2-c2ccc(F)cc2)cc1 [BC19242] | 72
25 | CS(=O)(=O)c1cncc(-c2ccc3nc(-c4ccc(F)cc4)c(-c4ccc(F)cc4)nc3c2)c1 [BC19243] | 64
26 | CN1CCOc2cc(-c3ccc4nc(-c5ccc(F)cc5)c(-c5ccc(F)cc5)nc4c3)ccc21 [BC19244] | 86
27 | Fc1ccc(-c2nc3ccc(-c4ccncc4)cc3nc2-c2ccc(F)cc2)cc1 [BC19245] | 67

Row | Compound | C: change in NAD levels in response to test compound, shown as % of NAD activity in the absence of test compound [%]
28 | CCc1nnc(-c2ccc3nc(-c4ccc(F)cc4)c(-c4ccc(F)cc4)nc3c2)o1 [BC19246] | 58
29 | CCCc1nnc(-c2ccc3nc(-c4ccc(F)cc4)c(-c4ccc(F)cc4)nc3c2)[nH]1 [BC19247] | 94
30 | Fc1ccc(-c2nc3ccc(-c4nnco4)cc3nc2-c2ccc(F)cc2)cc1 [BC19250] | 13
31 | O=C(Nc1ccc2nc(-c3ccc(F)cc3)c(-c3ccc(F)cc3)nc2c1)C1CCNCC1 [BC19251] | 0
32 | Cc1nnc(-c2ccc3nc(-c4ccc(F)cc4)c(-c4ccc(F)cc4)nc3c2)n1C [BC19301] | 57
33 | Cn1cc(-c2ccc3nc(-c4ccc(F)cc4)c(-c4ccc(F)cc4)nc3c2)cn1 [BC19302] | 58
34 | Cc1ccncc1-c1ccc2nc(-c3ccc(F)cc3)c(-c3ccc(F)cc3)nc2c1 [BC19304] | 69
35 | Cn1ncc2c(-c3ccc4nc(-c5ccc(F)cc5)c(-c5ccc(F)cc5)nc4c3)cccc21 [BC19305] | 93
36 | Fc1ccc(-c2nc3ccc(-c4nncn4CCN4CCOCC4)cc3nc2-c2ccc(F)cc2)cc1 [BC19306] | 76
37 | Cc1ccc(S(=O)(=O)c2nc3cc(C(=O)N4CCN(C)CC4)ccc3nc2-c2ccc(F)cc2)cc1F [BC19307] | 31
38 | Cc1ccc(S(=O)(=O)c2nc3cc(C(=O)N4CCN(C)CC4)ccc3nc2-c2ccc(F)cc2)cc1 [BC19308] | 48
39 | CN1CCC(C(=O)Nc2ccc3nc(-c4ccc(F)cc4)c(-c4ccc(F)cc4)nc3c2)CC1 [BC19309] | 18
40 | CC(=O)N1CCC(C(=O)Nc2ccc3nc(-c4ccc(F)cc4)c(-c4ccc(F)cc4)nc3c2)CC1 [BC19310] | 52
41 | CNC(=O)N1CCC(C(=O)Nc2ccc3nc(-c4ccc(F)cc4)c(-c4ccc(F)cc4)nc3c2)CC1 [BC19311] | 63
42 | CS(=O)(=O)N1CCC(C(=O)Nc2ccc3nc(-c4ccc(F)cc4)c(-c4ccc(F)cc4)nc3c2)CC1 [BC19312] | 54
43 | C=CC(=O)Nc1ccc2nc(-c3ccc(F)cc3)c(-c3ccc(F)cc3)nc2c1 [BC19313] | 91
44 | CC#CC(=O)Nc1ccc2nc(-c3ccc(F)cc3)c(-c3ccc(F)cc3)nc2c1 [BC19314] | 33
45 | C[C@H](Cl)C(=O)Nc1ccc2nc(-c3ccc(F)cc3)c(-c3ccc(F)cc3)nc2c1 [BC19315] | 89
46 | CN1CCN(C(=O)c2ccc3nc(-c4ccc(F)cc4)c(-c4ccc(Cl)cc4)nc3c2)CC1 [BC19317] | 42
47 | CN1CCN(C(=O)c2ccc3nc(-c4ccc(F)cc4)c(-c4ccc(F)cc4F)nc3c2)CC1 [BC19318] | 67
48 | CCc1ccc(-c2nc3cc(C(=O)N4CCN(C)CC4)ccc3nc2-c2ccc(F)cc2)cc1 [BC19319] | 95
49 | C#CCNC(=O)c1cccc2nc(-c3ccc(F)cc3)c(-c3ccc(F)cc3)nc12 [BC19321] | 72
50 | CN1CCN(C(=O)c2ccc3nc(-c4ccc(F)cc4)c(S(=O)(=O)c4cccc(F)c4)nc3c2)CC1 [BC19395] | 71
51 | OCCn1cc(-c2ccc3nc(-c4ccc(F)cc4)c(-c4ccc(F)cc4)nc3c2)nn1 [BC19396] | 60
52 | C#CC(=O)Nc1ccc2nc(-c3ccc(F)cc3)c(-c3ccc(F)cc3)nc2c1 [BC19397] | 65
53 | CN1CCN(C(=O)c2ccc3nc(-c4ccc(F)cc4)c(-c4ccc(Cl)cc4Cl)nc3c2)CC1 [BC19398] | 94

Reference: patent US20230321086A1, “METHODS AND MATERIALS FOR INHIBITING NICOTINAMIDE PHOSPHORIBOSYLTRANSFERASE ACTIVITY” (Universiy of Pittsburgh - Of the Commonwealth System of …, priority 2020, published 2023)
